Test results as given in US11752084B2, “Methods for fat reduction or elimination of lipid droplets” (Alastin Skincare, Inc., priority 2017, dated 2023).

Columns and labels:
[1] = system: 3T3-L1 adipocytes and J774 macrophages; assay: Macrophage clustering on adipocytes; format: cell-based; details: for number of macrophages associated with adipocytes: FIG. 5A, ~100 adipocytes/condition
Protocol: 3T3-L1 adipocytes were untreated or treated with TNF-alpha (˜25 nM) for 24 hours. One set of TNF-alpha treated adipocytes was also treated with hexapeptide-11 (0.1 mg/mL). One set of J774 macrophages was treated with hexapeptide-11 (0.1 mg/mL) for 24 hours. The macrophages were added to the adipocytes. After an 1 hour incubation, the cells were placed on ice and incubated with a fluorescently labeled Cholera toxin B subunit to label the cell surface of macrophages a fluorescent green. The cells were then fixed with 4% formaldehyde for 15 minutes and then incubated with LipidTox to label the lipid droplets within the adipocytes a fluorescent red color. Four conditions were performed: (1) J774 macrophages with untreated adipocytes; (2) J774 macrophages with TNF-alpha treated adipocytes; (3) J774 macrophages with TNF alpha treated adipocytes plus hexapeptide-11 in the 1 hour incubation of both cell types; and (4) peptide pretreated J774 macrophages with hexapeptide-11 pretreated TNF-alpha treated adipocytes incubated together in the presence of hexapeptide-11. Images taken with a 60× objective were analyzed by counting the number of macrophages associated with ˜100 adipocytes for each condition.

hyaluronic acid = details: ex vivo human skin model; cited from earlier work
Dermal Fibroblasts = assay: Gene expression in fibroblasts by quantitative-PCR; format: cell-based; details: 72 hours exposure, vs untreated control
Protocol: Gene expression in fibroblasts were measured following 72 hours of exposure to hexapeptide-11.
Dermal Fibroblasts were plated in cell culture media and allowed to grow to approximately 85-90% confluency following manufacturer's guidelines. Cells were harvested and plated at 10,000 cells per cm^2 in 6-well dishes cultured for 3 days. On the third day, confluency was estimated by microscopy and the cell culture media was replaced. The cells were treated with hexpapeptide-11 at a 100× concentration or control buffer without peptide. The time at initial exposure to the peptide is considered time, t=0. Treated and untreated control cells were harvested, counted and extracted for RNA at 24 hours, 48 hours, and 72 hours following t=0. Cell pellets and isolated RNA were stored at −80° C. until analysis by quantitative-PCR.
The 72-hour time point RNA samples (treated and untreated) were used for gene expression analysis. RNA was converted to first strand cDNA and analyzed by quantitative-PCR.

Compound | number of macrophages associated with adipocytes [1] | stimulation of dermal hyaluronic acid level versus placebo (hyaluronic acid) [%] | stimulation of epidermal hyaluronic acid level versus placebo (hyaluronic acid) [%] | macrophage clustering ([1]; 0.1 mg/mL, TNF-alpha treated adipocytes) | adipocyte droplet breakdown ([1]; TNF-alpha and peptide treatments, FIG. 4 right panel) | Fold Change AMBRA1 (Dermal Fibroblasts) [fold] | Fold Change ATG4A (Dermal Fibroblasts) [fold] | Fold Change ATG5 (Dermal Fibroblasts) [fold] | Fold Change CASP3 (Dermal Fibroblasts) [fold] | Fold Change COL5A2 (Dermal Fibroblasts) [fold] | Fold Change IGF1 (Dermal Fibroblasts) [fold] | Fold Change MAPK14 (Dermal Fibroblasts) [fold] | Fold Change PDGFRA (Dermal Fibroblasts) [fold] | Fold Change PSMB5 (Dermal Fibroblasts) [fold] | Fold Change SOD3 (Dermal Fibroblasts) [fold] | Fold Change TNF (Dermal Fibroblasts) [fold]
TNF-alpha [reference compound] | greatly increased | – | – | – | – | – | – | – | – | – | – | – | – | – | – | –
CCCCCCCC(=O)CCc1ccc(O)c(OC)c1 [hydroxymethoxyphenyl decanone] | – | 259 | 198 | – | – | – | – | – | – | – | – | – | – | – | – | –
Phe-Val-Ala-Pro-Phe-Pro (FVAPFP) [hexapeptide-11] | increased | – | – | increase macrophage clustering | further adipocyte droplet breakdown | 3.59 | 3.29 | 2.00 | 2.24 | −65.65 | −901.80 | −83.67 | −369.65 | 2.56 | −101.59 | −92.41
